Source: patent US6071899A, “Azetidinone derivatives for the treatment of atherosclerosis” (SmithKline Beecham p.l.c., priority 1994, dated 2000)

How the values were obtained:
Lp-PLA2 = molecular target: T1, Lp-PLA2 (Homo sapiens, UniProt Q13093); assay: Screen for Lp-PLA2 inhibition; format: biochemical; details: artificial substrate (A) 20 μM, 37° C., pH 7.4, 10 min pre-incubation, 405 nm; enzyme partially purified from human plasma
T1 construct: Lp-PLA2 was partially purified by density gradient centrifugation of human plasma; from tissue; host or cells: human plasma (pooled active fractions, partially purified)
T1 sequence (Q13093 22-441): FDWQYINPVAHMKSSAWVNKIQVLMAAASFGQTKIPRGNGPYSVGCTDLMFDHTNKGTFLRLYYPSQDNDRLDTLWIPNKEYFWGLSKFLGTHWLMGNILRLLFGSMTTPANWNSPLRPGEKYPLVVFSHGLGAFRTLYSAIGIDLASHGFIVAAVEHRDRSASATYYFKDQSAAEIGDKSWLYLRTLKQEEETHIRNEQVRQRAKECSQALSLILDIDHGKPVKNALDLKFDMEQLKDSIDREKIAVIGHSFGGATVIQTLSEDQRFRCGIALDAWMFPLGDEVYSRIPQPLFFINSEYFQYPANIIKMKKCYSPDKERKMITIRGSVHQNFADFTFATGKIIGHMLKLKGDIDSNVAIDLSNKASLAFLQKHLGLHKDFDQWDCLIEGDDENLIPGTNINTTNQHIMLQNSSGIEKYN
Method: 1. Screen for Lp-PLA2 inhibition.
Enzyme activity was determined by measuring the rate of turnover of the artificial substrate (A) at 37° C. in 50 mM HEPES (N-2-hydroxyethylpiperazine-N'-2-ethanesulphonic acid) buffer containing 150 mM NaCl, pH 7.4. [drawing 7] Assays were performed in 96 well titre plates.
Lp-PLA2 was partially purified by density gradient centrifugation of human plasma. Active fractions were pooled and used as the source of Lp-PLA2. The enzyme was pre-incubated at 37° C. with vehicle or test compound for 10 min in a total volume of 180 μl. The reaction was then initiated by the addition of 20 μl 10× substrate (A) to give a final substrate concentration of 20 μM. The reaction was followed at 405 nm for 20 minutes using a plate reader with automatic mixing. The rate of reaction was measured as the rate of change of absorbance.

[1] = system: lyso-PtdCho formation in human LDL; assay: Inhibition of Cu2+ stimulated lyso-phosphatidylcholine (lyso-PtdCho) formation; format: biochemical; details: 5 μM Cu2+
Method: 2. Inhibition of Cu 2+stimulated lyso-phosphatidylcholine (lyso-PtdCho) formation.
A 1 ml aliquot of human LDL (0.25 mg protein/ml) was incubated for 15 min at 37° C. with compound or vehicle. 5 μM Cu^2+ was then added to allow oxidation/lyso-PtdCho formation to occur. The incubation was terminated by the addition of 3.75 ml chloroform/methanol/c HCl (200:400:5,v/v/v). Following the addition of 1.25 ml chloroform and 1.25 ml 0.1M HCl, the mixture was vortexed and centrifuged. The lower phase was carefully removed and the upper phase re-extracted with an equal volume of synthetic lower phase. The extracts were pooled and dried under nitrogen.
Phospholipids were reconstituted into 50 μl chloroform/methanol (2:1 v/v). 10 μl aliquots were spotted on to pre-run silica gel HPTLC plates and then developed in chloroform/methanol 25-30% methylamine (60:20:5 v/v/v). Plates were subsequently sprayed with the flourescent indicator, 2-p-toluidinylnaphthalene-6-sulphonic acid (1 mM in 50 mM Tris/HCl, pH 7.4) to identify phospholipid components. Fluorescence was measured at 222 nm using a CAMAG TLC scanner. Lipoprotein lyso-PtdCho content was quantified using a standard curve (0.05-0.5 μg) prepared in parallel.

IC50 (Lp-PLA2) [nM] | IC50 ([1]; human LDL 0.25 mg protein/ml, 15 min pre-incubation at 37° C., read-out: IC50 (inhibition of LDL lyso-PtdCho accumulation stimulated by copper ions)) [nM] | SMILES | inhibition of LDL lyso-PtdCho accumulation stimulated by copper ions (in words) ([1]; human LDL)
30 to 400 |  | CCCCCC[S+]([O-])C1CC(=O)N1CC(=O)NCCCCCCc1ccccc1 (single isomer, unassigned) [Example 79, N-(6-Phenylhexyl)-(4-n-hexylsulfinyl-2-oxoazetidin-1-yl)acetamide] | 
30 to 400 | ~60 | C[C@@H]1C(=O)N(CC(=O)NCCCCCCc2ccccc2)[C@H]1[S+](C)[O-] (relative stereo) [Example 71, trans-N-(6-phenylhexyl)-(3-methyl-4-methylsulphinyl-2-oxoazetidin-1-yl)acetamide] | dose dependently inhibits
30 to 400 |  | C[S+]([O-])C1CC(=O)N1CC(=O)NCCCCCCc1ccccc1 (centres unmarked) [Example 63, N-6-Phenylbexyl-(4-methylsulphinyl-2-oxoazetidin-1-yl)acetamide] | 
30 to 400 |  | CCCCCC[S+]([O-])C1CC(=O)N1CC(=O)CCc1ccccc1 (single isomer, unassigned) [Example 24, 4-Hexylsulfinyl-1-(4-phenyl-2-oxobutyl)azetidin-2-one] | 
30 to 400 |  | CCCC[S+]([O-])C1CC(=O)N1CC(=O)CCc1ccccc1 (centres unmarked) [Example 18, 4-Butylsulfinyl-1-(4-phenyl-2-oxobutyl)azetidin-2-one] | 
30 to 400 |  | C[S+]([O-])C1CC(=O)N1CCCCc1ccccc1 (centres unmarked) [Example 84, 4-Methylsulfinyl-1-(4-phenylbutyl)-azetidin-2-one] | 
